Experimental data as given in ChEMBL document CHEMBL5136978, “Research progress in pharmacological activities and structure-activity relationships of tetralone scaffolds as pharmacophore and fluorescent skeleton” (Eur J Med Chem, 2022).
Values after ≈ are worked out from the molar mass of the structure shown. Values belong to the molecule of their own block, whether it stands above or below them.

Assays:
[1] = target: T1, Amine oxidase [flavin-containing] A (Homo sapiens, UniProt P21397); test: Inhibition of MAO-A (unknown origin)
T1 sequence (P21397 whole entry): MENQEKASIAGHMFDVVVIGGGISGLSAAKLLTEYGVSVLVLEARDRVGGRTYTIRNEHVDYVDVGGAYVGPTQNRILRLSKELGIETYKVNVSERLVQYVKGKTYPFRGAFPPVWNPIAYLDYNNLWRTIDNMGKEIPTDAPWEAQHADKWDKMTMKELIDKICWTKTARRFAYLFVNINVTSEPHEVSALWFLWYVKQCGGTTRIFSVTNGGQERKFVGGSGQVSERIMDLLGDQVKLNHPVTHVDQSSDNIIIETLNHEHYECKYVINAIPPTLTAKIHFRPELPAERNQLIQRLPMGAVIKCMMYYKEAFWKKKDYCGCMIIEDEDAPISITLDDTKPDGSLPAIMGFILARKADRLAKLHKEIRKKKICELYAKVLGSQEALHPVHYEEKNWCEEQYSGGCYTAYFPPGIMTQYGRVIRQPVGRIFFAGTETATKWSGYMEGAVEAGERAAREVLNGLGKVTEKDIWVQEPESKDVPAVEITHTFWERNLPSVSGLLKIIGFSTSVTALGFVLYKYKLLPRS

[2] = target: T2, Amine oxidase [flavin-containing] B (Homo sapiens, UniProt P27338); test: Inhibition of MAO-B (unknown origin)
T2 sequence (P27338 whole entry): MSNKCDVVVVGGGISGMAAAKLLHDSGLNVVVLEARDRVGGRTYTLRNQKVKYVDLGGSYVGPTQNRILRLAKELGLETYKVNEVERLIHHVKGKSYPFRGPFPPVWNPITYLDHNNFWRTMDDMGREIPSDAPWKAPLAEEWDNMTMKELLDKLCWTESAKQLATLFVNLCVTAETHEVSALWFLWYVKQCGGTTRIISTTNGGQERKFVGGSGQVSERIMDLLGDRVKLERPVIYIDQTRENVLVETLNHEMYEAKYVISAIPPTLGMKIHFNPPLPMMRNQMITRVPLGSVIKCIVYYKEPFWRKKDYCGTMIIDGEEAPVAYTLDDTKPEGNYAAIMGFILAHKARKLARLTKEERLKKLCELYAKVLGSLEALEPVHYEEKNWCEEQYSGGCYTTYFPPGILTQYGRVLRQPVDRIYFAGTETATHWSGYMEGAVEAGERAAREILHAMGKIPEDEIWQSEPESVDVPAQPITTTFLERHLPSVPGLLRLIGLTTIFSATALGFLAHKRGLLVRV

[3] = species: Homo sapiens; test: Selectivity index, ratio of IC50 for MAO-A (unknown origin) to IC50 for MAO-B (unknown origin)
[4] = system: Candida albicans; test: Antifungal activity against Candida albicans MTCC 227 assessed as fungal growth inhibition; assay type: functional
[5] = system: Aspergillus fumigatus; test: Antifungal activity against Aspergillus fumigatus MTCC 343 assessed as fungal growth inhibition; assay type: functional
[6] = target: T1, Amine oxidase [flavin-containing] A; test: Inhibition of human MAO-A assessed as measuring amount of 4-hydroxyquinoline using kynuramine as substrate incubated for 20 mins by fluorescence spectrophotometry
[7] = target: T2, Amine oxidase [flavin-containing] B; test: Inhibition of human MAO-B assessed as measuring amount of 4-hydroxyquinoline using kynuramine as substrate incubated for 20 mins by fluorescence spectrophotometry
[8] = species: Homo sapiens; test: Selectivity index, ratio of IC50 for human MAO-A to IC50 for human MAO-B
[9] = system: HepG2; test: Antiproliferative activity against human HepG2 cells assessed as cell growth inhibition at 500 uM for 24 to 72 hrs by MTT assay relative to control; assay type: functional; design: scale not given: the % may be the effect or the level left; conditions: time 24-72 hrs
[10] = system: L02; test: Antiproliferative activity against human L02 cells assessed as cell growth inhibition at 500 uM for 24 to 72 hrs by MTT assay relative to control; assay type: functional; design: scale not given: the % may be the effect or the level left; conditions: time 24-72 hrs
[11] = system: HepG2; test: Downregulation of phosphorylated Akt in human HepG2 cells xenografted in BALB/c mouse at 160 mg/kg/day, ip for 19 days and measured after 24 hrs post last dose by immunohistochemical analysis relative to control; assay type: functional; conditions: time 20 day
[12] = system: HepG2; test: Downregulation of NF-kappaB in human HepG2 cells xenografted in BALB/c mouse at 160 mg/kg/day, ip for 19 days and measured after 24 hrs post last dose by immunohistochemical analysis relative to control; assay type: functional; conditions: time 20 day
[13] = system: HepG2; test: Downregulation of MMP9 in human HepG2 cells xenografted in BALB/c mouse at 160 mg/kg/day, ip for 19 days and measured after 24 hrs post last dose by immunohistochemical analysis relative to control; assay type: functional; conditions: time 20 day
[14] = system: HepG2; test: Downregulation of MMP2 in human HepG2 cells xenografted in BALB/c mouse at 160 mg/kg/day, ip for 19 days and measured after 24 hrs post last dose by immunohistochemical analysis relative to control; assay type: functional; conditions: time 20 day
[15] = target: T3, 1,25-dihydroxyvitamin D(3) 24-hydroxylase, mitochondrial (Homo sapiens, UniProt Q07973); test: Displacement of 25-hydroxy-[26,27-methyl-3H]-vitamin D3 from CYP24 in 1,25(OH)2D3-treated human DU-145 cells using 25-(OH)D3 as substrate pretreated with 1,25(OH)2D3 for 24 hrs followed by compound addition measured after 30 mins by HPLC analysis; assay type: cell-based
[16] = system: DU-145; test: Cytotoxicity against 1,25-(OH)2D3-treated human DU-145 cells assessed as cell growth inhibition incubated for 96 hrs and re-dosed after 48 hrs […] by MTT assay relative to control; assay type: functional; design: scale not given: the % may be the effect or the level left; conditions: time 273 hrs
[17] = target: T3, 1,25-dihydroxyvitamin D(3) 24-hydroxylase, mitochondrial; test: Inhibition of CYP24 (unknown origin); assay type: ADME
[18] = system: MCF7; test: cells; assay type: functional, cell-based; conditions: Homo sapiens, MCF7, 72 h
Description: Cytotoxicity against human MCF7 cells assessed as cell growth inhibition incubated for 3 days by MTT assay

[19] = system: MDA-MB-231; test: Cytotoxicity against human MDA-MB-231 cells assessed as cell growth inhibition incubated for 72 hrs by alamar blue staining based assay; assay type: functional; conditions: MDA-MB-231, 72 h
[20] = system: A549; test: Antiproliferative activity against human A549 cells assessed as cell growth inhibition by MTT assay; assay type: functional, cell-based
[21] = system: HT-29; test: Antiproliferative activity against human HT-29 cells assessed as cell growth inhibition by MTT assay; assay type: functional, cell-based
[22] = system: T-24; test: Antiproliferative activity against human T24 cells assessed as cell growth inhibition by MTT assay; assay type: functional, cell-based
[23] = system: MCF7; test: Antiproliferative activity against human MCF7 cells assessed as cell growth inhibition by MTT assay; assay type: functional, cell-based
[24] = system: HepG2; test: Antiproliferative activity against human HepG2 cells assessed as cell growth inhibition by MTT assay; assay type: functional, cell-based
[25] = Antioxidant activity assessed as DPPH radical scavenging activity incubated for 30 mins under dark condition by absorbance based assay; assay type: functional
[26] = Antioxidant activity assessed as superoxide scavenging activity incubated for 20 mins by absorbance based assay; assay type: functional
[27] = Antioxidant activity assessed as hydroxyl radical scavenging activity incubated for 30 mins by absorbance based assay; assay type: functional
[28] = system: RAW264.7; test: Inhibition of ROS production in LPS-stimulated mouse RAW264.7 cells preincubated for 1 hr followed by LPS stimulation measured after 24 hrs by fluorometry; assay type: functional, cell-based
[29] = system: Trypanosoma brucei brucei; test: Antitrypanosomal activity against Trypanosoma brucei brucei trypomastigotes assessed as parasite viability measured after 48 hrs by resazurin based fluorescence assay relative to control; assay type: functional
[30] = system: Trypanosoma brucei brucei; test: Antitrypanosomal activity against Trypanosoma brucei brucei trypomastigotes assessed as parasite viability measured after 48 hrs by resazurin based fluorescence assay; assay type: functional, organism-based
[31] = target: T1, Amine oxidase [flavin-containing] A; test: Inhibition of recombinant human MAO-A assessed as measuring amount of 4-hydroxyquinoline using kynuramine as substrate incubated for 20 mins by fluorescence spectrophotometry
[32] = system: Nannizzia gypsea; test: Antifungal activity against Microsporum gypseum C 115 2000 assessed as fungal growth inhibition by cup-plate method; assay type: functional

T3 sequence (Q07973 whole entry): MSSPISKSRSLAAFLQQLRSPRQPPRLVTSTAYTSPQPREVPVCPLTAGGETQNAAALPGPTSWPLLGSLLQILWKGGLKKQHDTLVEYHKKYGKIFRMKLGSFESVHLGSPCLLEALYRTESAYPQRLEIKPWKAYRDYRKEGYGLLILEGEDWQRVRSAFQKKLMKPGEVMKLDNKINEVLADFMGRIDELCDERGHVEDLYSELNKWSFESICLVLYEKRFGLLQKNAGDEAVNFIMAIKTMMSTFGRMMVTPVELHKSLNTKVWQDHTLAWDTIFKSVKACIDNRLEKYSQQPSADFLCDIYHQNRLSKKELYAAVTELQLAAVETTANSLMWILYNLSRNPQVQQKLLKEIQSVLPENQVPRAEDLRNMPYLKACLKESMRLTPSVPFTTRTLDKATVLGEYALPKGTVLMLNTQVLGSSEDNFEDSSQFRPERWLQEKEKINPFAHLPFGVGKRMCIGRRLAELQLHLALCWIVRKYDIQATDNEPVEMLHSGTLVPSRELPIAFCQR

Compound: COc1ccc2c(c1)CC[C@@H]1C2=NN(C2=NC(=O)CS2)[C@@H]1c1ccccc1
MIC [4]: 12.5 µg/mL (≈ 33.1 µM) | MIC [5]: 12.5 µg/mL (≈ 33.1 µM)

Compound: COc1ccc2c(c1)C(=O)CCC2
Activity [9]: >50% | Activity [10]: >50% | Activity [11]: 2.91% | Activity [12]: 35.47% | Activity [13]: 7.64% | Activity [14]: 9.69%

Compound: COc1ccc2c(c1)CC/C(=C\c1cc(C(F)(F)F)ccc1C(F)(F)F)C2=O
IC50 [17]: 900 nM

Compound: COc1ccc(C2C(C#N)=C(N)Oc3c2s/c(=N\c2ccc(Br)cc2)n3/N=C2\CCCc3cc(OC)ccc32)cc1 (configuration not stated)
IC50 [18]: 930 nM

Compound: C[C@H]1CC(=O)c2c(O)cccc2[C@@H]1O
IC50 [19]: > 520000 nM

Compound: CC(C)c1ccc2c(c1)C(C)(C)CC(Sc1nc(N)n(S(=O)(=O)c3ccc(Cl)c([N+](=O)[O-])c3)n1)C2=O (configuration not stated)
IC50 [20]: 9890 nM | IC50 [21]: 22200 nM | IC50 [22]: 26900 nM | IC50 [23]: 28900 nM | IC50 [24]: 21400 nM

Compound: O=C(/C=C/c1ccc(O)cc1)OC[C@H]1O[C@@H](Oc2ccc(O)c3c2C[C@H](O)CC3=O)C[C@@H](O)[C@@H]1O
IC50 [25]: 57500 nM | IC50 [26]: 61200 nM | IC50 [27]: 2000 nM

Compound: Nc1ccc2c(c1)CC/C(=C\c1ccccc1F)C2=O
IC50 [28]: 250 nM

Compound: O=C1/C(=C/c2ccccc2-c2ccccc2)CCc2cc(O)ccc21
Activity [29]: 0.7% | IC50 [30]: 400 nM

More lines, main results first:

IC50 [1]: 754 nM | IC50 [2]: 13 nM | Ratio IC50 [3]: 58
Compound: O=C1/C(=C/c2cccc(Br)c2)CCc2ccc(O)cc21

IC50 [6]: 1960 nM | IC50 [7]: 707 nM | Ratio IC50 [8]: 2.8
Compound: COc1ccc2c(c1)C(=O)/C(=C/c1ccc[nH]1)CC2

IC50 [15]: 3500 nM
Compound: COc1ccc2c(c1)CCC(Cc1ccc(O)cc1)C2=O (configuration not stated)
Activity [16]: 25%

IC50 [31]: 36 nM
Compound: O=C1CCCc2ccc(OCc3ccc(Cl)cc3)cc21

MIC [32]: 3 µg/mL (≈ 11.2 µM)
Compound: O=C1/C(=C/c2ccc(Cl)cc2)CCc2ccccc21
